Entries after “also recorded” stand apart in the source; their conditions may differ.

The source of these data is patent publication US20260294846A1, “COMPOSITIONS AND METHODS FOR TREATING VULVAR AND VAGINAL ATROPHY (VVA)” (Daré Bioscience, Inc., priority 2023, published 2026).

The conditions of data set [1]: more potent than tamoxifen; cited from earlier work.
Data set [2] deals with female New Zealand White rabbits (vagina, uterus, ovary). In words: Study 3015-012: 12-week intravaginal toxicity of tamoxifen in rabbits. The data set is classed as in vivo, rabbit (New Zealand White). From the text: (§1) Tamoxifen is a selective estrogen receptor modulator (SERM) which has species and tissue specific estrogen agonist and antagonist properties. Given orally in women, tamoxifen has estrogen antagonist activity in breast tissue and estrogen agonist effects in the endometrium and vagina. When administered vaginally in women, there is reduced systemic exposure leading to reduced systemic side effects. The objective of this pre-clinical study was to test the safety, pharmacokinetics (PK) and toxicity of vaginal tamoxifen over a 3 and 9 month treatment period in female New Zealand White rabbits.
(§2) All animal studies were conducted under IACUC approvals. In study 3015-012, at Charles River Labs (Mattawan, MI, USA), 45 female rabbits were randomly assigned to either sham (saline), placebo, or 5, 10 or 20 mg/kg/dose of vaginal tamoxifen. Investigational product (IP) was administered intravaginally once daily for 14 days, then twice weekly for up to 10 weeks with necropsy at 12-weeks. In study 858-0032-TX, conducted at WuXi AppTec (Suzhou, Jiangsu, China), 40 female rabbits were randomly assigned to sham (saline), placebo, or 10 or 30 mg/kg/dose of vaginal tamoxifen. IP was administered daily for 14 days and then twice weekly. An interim necropsy was performed at 26-weeks and then at 39-weeks.

The test system of the next data set is vagina. In words: Vaginal pH. The data set is classed as in vivo, human (women). The source says:
Estrogenic effect measurements will include vaginal cytology (maturation index; percentage of basal and superficial cells) and vaginal pH at screening and baseline, every 2 weeks during treatment, and 1 week after treatment.
Vaginal swabs for determination of pH will be collected in accordance with the schedule of events (Table 4). The pH of vaginal secretions will be measured using pH paper.
Local estrogenic effect measurements included obtaining vaginal epithelial cells from the lateral vaginal sidewall and determining the VMI. The VMI is determined by categorizing the ratio (proportion in 100 cells) of the three types of vaginal epithelial cell types (parabasal, intermediate and superficial). A total VMI score was calculated as: % superficial cells+(0.5 x% intermediate cells)+(0 x % parabasal cells). The VMI and vaginal pH were measured at screening and baseline, and subsequently every 2 weeks during treatment and 1 week after treatment.

Data set [3] has as its system female New Zealand White rabbits (vagina, uterus, ovary). In words: Study 858-0032-TX: 26/39-week intravaginal toxicity of tamoxifen in rabbits. Format: in vivo, rabbit (New Zealand White).
Source text: as §1, §2

The conditions of data set [4]: cited from earlier work.
Data set [5] is described as follows: Systemic plasma pharmacokinetics of tamoxifen and metabolites after intravaginal DARE-VVA1. Further details: species or system human (women). The following applies: human, in vivo, 20 mg. The source says: In each treatment group, participants will have serial blood sampling for PK analysis, with venous samples drawn from an indwelling line. Dense sampling will be performed following the Day 1 and Day 56 administrations of a tamoxifen vaginal insert; trough samples will be collected prior to dosing on Days 4, 7, 10, 18, 28, and 42, and a final sample will be collected at follow-up on Day 63. Samples will be analyzed using validated methods to determine plasma concentrations of tamoxifen and 3 metabolites: 4-hydroxytamoxifen, N-desmethyl-tamoxifen, and N-desmethyl-4-hydroxytamoxifen (endoxifen). […]
Samples will be analyzed using validated methods to determine plasma concentrations of tamoxifen and 3 metabolites: 4-hydroxytamoxifen, N-desmethyltamoxifen, and N-desmethyl-4-hydroxytamoxifen (endoxifen).
The PK characterization of tamoxifen concentrations for each dose to be profiled will use noncompartmental analysis (NCA). […] Standard PK parameters assessed will include measures of the extent of absorption using estimates of the area under the plasma concentration-time curve (AUC), the maximum observed drug concentration (Cmax), and the time to reach maximum drug concentration (Tmax). […]

The next data set has as its system endometrium. Particulars: cited from earlier work.
Setting [6] is: 20 mg/kg/day, 12 weeks, cranial and mid vagina.
[7] abbreviates: 20 mg/kg/day, 12 weeks, intravaginal.
Setting [8] is: postmenopausal women, daily oral tamoxifen at least 4 years.

Turning to `CC/C(=C(\c1ccccc1)c1ccc(OCCNC)cc1)c1ccccc1` [NDT, N-desmethyltamoxifen], the “Systemic potency relative to tamoxifen” value in data set [1] is reported as “approximately 1.7 ×”.
For the molecule 4-hydroxytamoxifen [4-OHT], the “Potency relative to tamoxifen” value in data set [1] is listed as “approximately 100 ×”.
`CC/C(=C(\c1ccccc1)c1ccc(OCCN(C)C)cc1)c1ccccc1` [tamoxifen, 1-(p-dimethylamino-ethoxphenyl)-2-ethyl-1,2-diphenylethylene]: the Adverse effects entry in data set [2] (20 mg dose, 12 weeks) is recorded as “no observed adverse effects”. In data set [2] (setting [6]), the “Vagina microscopy, atrophy” value is “minimal to mild diffuse atrophy; also recorded: diffuse vaginal atrophy” and the “Vagina microscopy, inflammatory cell infiltration” value is reported as “increased incidence and/or severity of minimal to mild mixed inflammatory cell infiltration; also recorded: increased incidence of vaginal mixed inflammatory cell infiltrates”. Besides, in data set [2] (setting [7]), the Ovary microscopy entry is given as “atrophy of interstitial glands; also recorded: increased incidence of ovarian interstitial gland atrophy with decreased weights”; the Paired ovary weights result was “decreases in the mean weights (absolute and relative to terminal body weight)”; the Uterus/cervix weights result was “decreases in the mean weights (absolute and relative to terminal body weight); also recorded: decreased uterine weights”. In addition, in data set [2] (12-week necropsy), the “Vaginal epithelial degeneration, erosion, ulceration” value is recorded as “no evidence of epithelial degeneration, erosion, or ulceration”. Besides, in data set [2] (12 weeks), the Other parameters result is listed as “no observed tamoxifen-related adverse effects on any of the other parameters”. In the data set on vagina (10 mg and 20 mg, 8-week treatment), the “Improvement in vaginal pH” value was “most improvement in vaginal pH”. Further, in the data set on vagina (all active doses combined, Day 56), the “Change in vaginal pH, baseline to end of treatment” value is listed as “statistically significant decreases in vaginal pH”. Further, the “Median end of treatment vaginal pH levels, range” value in the data set with vagina (end of treatment) is given as 5.0-5.3. In addition, in data set [3] (30 mg dose, 39 weeks), the Adverse effects result was “no observed adverse effects”. Besides, in data set [3] (30 mg/day, 26 weeks), the “Females affected by uterine atrophy” value is given as “Four of five”. Further, in data set [3] (30 mg/kg/day, 26 weeks), the Ovary microscopy entry is given as “moderate to marked atrophy of the interstitial cells in the ovary”; the “Uterine and ovarian weights” value is “Product-related uterine and ovarian weight decreases”; the Uterus microscopy entry is reported as “mild to moderate uterine atrophy”. Besides, the Macroscopic changes result in data set [3] (26 weeks, any treatment group) was “no IP related macroscopic changes”. Moreover, in data set [3] (two studies, up to 39 weeks), the “Systemic toxicity clinical findings” value is listed as “no observed clinical findings which would be suspicious for systemic toxicity” and the “Uterine or endometrial hyperplasia” value is listed as “no evidence of uterine or endometrial hyperplasia”. The “Local genital tract findings” value in data set [3] (vagina, uterus, ovary, up to 39 weeks) is “mostly organ atrophy”. Also, the “Steady-state plasma concentration of NDT, range” value in data set [4] (3 months oral daily 20 mg tamoxifen) was 152 to 706 ng/mL. In addition, in data set [4] (oral 20 mg dose), the “Mean steady-state concentration of tamoxifen” value is 122 ng/mL and the “Steady-state concentration of tamoxifen, range” value is on record as 71-183. Moreover, the “Peak plasma concentration of NDT, range” value in data set [4] (oral tamoxifen) was 10 to 20 ng/mL. Moreover, in data set [4] (single oral dose 20 mg), the “Maximum plasma concentration of tamoxifen, range” value was 35 to 45 ng/mL and the “Mean maximum plasma concentration of tamoxifen” value was 40 ng/mL. For the same molecule, in data set [5] (Day 10, read-out: Single maximum plasma tamoxifen concentration), the Cmax at 240 h was 12 ng/mL. The concentration at 240 h in data set [5] (Day 10 trough, read-out: Plasma tamoxifen, median) was determined as 8.29 ng/mL. Moreover, in the data set with endometrium (setting [8]), the “Endometrial risk relative to general postmenopausal population” value is listed as “about two to three times that of the general postmenopausal population”, the “Risk of complex hyperplasia” value is on record as 3%, the “Risk of endometrial carcinoma” value is listed as 2% and the “Risk of simple hyperplasia” value is listed as “approximately 12%”. Further, in the data set on endometrium (premenopausal women, oral tamoxifen), the “Risk of endometrial hyperplasia” value is reported as “no different than in the general premenopausal population”.
On to `CC/C(=C(\c1ccc(O)cc1)c1ccc(OCCNC)cc1)c1ccccc1` [endoxifen, N-desmethyl-4-hydroxytamoxifen], for which, in data set [1], the “Potency relative to tamoxifen” value is “approximately 100 ×”.
